How the values were obtained:
monocytes = experiment: Monocyte Recruitment Assay (chemotaxis of monocytes); type: cell-based; settings: Table 3; for EC50: Monocyte, read-out: Monocyte Recruitment Assay ED50
Protocol: Monocyte Recruitment Assay
The recruitment or chemotaxis of monocytes was assayed by methods well known to those skilled in the art. In particular, the method set forth in J. Clin. Invest., 1988;82:1853-1863, which is hereby incorporated by reference, was used.

[1] = molecular target: T1, rabbit reticulocyte 15-LO (Oryctolagus cuniculus, UniProt P12530); experiment: Rabbit Reticulocyte 15-LO Assay (h15LO); type: biochemical; settings: Table 2; 2U rabbit reticulocyte 15-LO, 174 μM linoleic acid, 15 minutes at 4° C.
T1 construct: Fifteen-lipoxygenase was obtained from phenylhydrazine-treated rabbits and purified per the method of Rapoport; from tissue; host or cells: reticulocytes of phenylhydrazine-treated rabbits
T1 sequence (P12530 1-663): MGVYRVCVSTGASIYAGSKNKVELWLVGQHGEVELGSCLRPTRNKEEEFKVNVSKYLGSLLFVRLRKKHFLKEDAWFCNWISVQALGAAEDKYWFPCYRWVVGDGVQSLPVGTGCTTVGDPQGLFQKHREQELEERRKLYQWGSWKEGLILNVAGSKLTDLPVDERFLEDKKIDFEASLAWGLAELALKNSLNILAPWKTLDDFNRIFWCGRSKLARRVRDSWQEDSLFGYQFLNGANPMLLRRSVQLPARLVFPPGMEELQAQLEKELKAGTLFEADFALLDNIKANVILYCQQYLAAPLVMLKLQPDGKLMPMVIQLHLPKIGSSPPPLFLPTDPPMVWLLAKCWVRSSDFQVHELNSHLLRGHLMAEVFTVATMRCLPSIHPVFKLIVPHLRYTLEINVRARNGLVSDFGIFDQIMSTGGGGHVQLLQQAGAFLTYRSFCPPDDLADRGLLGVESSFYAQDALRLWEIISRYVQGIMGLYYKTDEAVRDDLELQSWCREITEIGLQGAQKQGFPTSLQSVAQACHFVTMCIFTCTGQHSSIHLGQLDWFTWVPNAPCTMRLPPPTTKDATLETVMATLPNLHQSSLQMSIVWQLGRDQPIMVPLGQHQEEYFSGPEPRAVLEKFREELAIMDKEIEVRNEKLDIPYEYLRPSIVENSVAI
In short: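 Purified rabbit reticulocyte 15-LO (2U) incubated with inhibitor and 174 μM linoleic acid in PBS with 0.2% Na cholate for 15 minutes at 4° C. 13-HPODE quantified by peak area against 13-HODE standard curve; % inhibition relative to uninhibited reaction.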

[2] = system: Rabbits fed a 0.25% cholesterol, 3% peanut oil, 3% coconut oil diet; experiment: In vivo tests: aortic atherosclerotic lesions in rabbits fed a cholesterol diet; settings: 10 mg/kg as diet admix, 12 weeks
Protocol: The entire descending thoracic aorta was assayed for its cholesteryl ester (CE), free cholesterol phospholipid content. The lipids were extracted in chloroform:methanol (2:1) by the procedure of Folch, et al. (Folch J., Lees M., Sloane-Stanley G. H. A simple method for the isolation and purification of total lipids from animal tissue, J. Biol. Chem., 1957;226:497-509) and 300-500 μL of an internal standard, i.e., 200 mg/ml solution of 4-hydroxy-cholesterol in ethyl acetate:acetone (2:1), was added to the extracts of the thoracic aortic samples. After extraction, the organic phase was dried under nitrogen and redissolved in isooctane/tetrahydro-furan (97:3). The lipid content and composition of the thoracic aorta were measured using an HPLC method.
For histologic evaluation of the aortic arch lesions and for quantification of aortic arch cross-sectional lesion area, a 1 cm segment of the ascending aorta distal to the aortic valves was fixed in 10% neutral buffered formalin for 24 hours. The vessels were dehydrated, cleared in xylene, and infiltrated with molten paraffin (<60° C.) using a Tissue Tek VIP autoprocessor (Miles Scientific, Elkhart, Ind.). The tissue segments were embedded in paraffin and sectioned at 5 μm with a Reichert-Jung microtome (Baxter, McGraw Park, Ill.). In order to obtain a thorough representation of the histologic appearance of the aortic arch lesions, 3 ribbons of 20 sections each were cut. Each ribbon of sections was spaced approximately 100 μm apart. Three pairs of sections, i.e., 1 pair from each ribbon, were affixed to cleaned 3-aminopropyltriethoxy-silane coated glass slides and stored until stained. The general histologic character was evaluated in Verhoeff's elastica stained sections.
The gross extent of atherosclerosis within the aortic arch was measured. In addition, sections of the aortic arch, a site of hypercholesterolemia-induced lesions, stained using the Verhoeff's elastica procedure were used for quantification of lesion cross-sectional. The internal elastic lamina (IEL) was identified as a blue-black ring and images of that region were collected using a digital camera. The area within the IEL was quantified using the Image Pro Plus image analysis software. The area of the lumen of the aortic arch was also quantified in a similar fashion. Lesion area was defined as the difference between the area circumscribed by the internal elastic lamina and the lumen area.
Aortic arch lesion extent was also measured. The area distal to the 1 cm segment taken for histologic evaluation to the first intercostal ostia was removed from the animal, opened longitudinally and images of the surface of the vessel was collected using a digital camera. The lesions were identified as raised, opaque areas and their area was determined using the Image Pro Plus image analysis software. The area of the entire aortic arch was also determined. The percentage of aortic arch covered by atherosclerotic lesions was calculated.

Compound	Monocyte Recruitment Assay % @ 30 μM (monocytes) [% @ 30 μM]	melting point [°C]	IC50 [1] [nM]	EC50 (monocytes) [nM]	Aortic Arch Cross-Sectional Lesion Area (% Δ from Control) [2]	Aortic Arch Lesion Extent (% Δ from Control) [2]	Aortic Cholesteryl Ester Content (% Δ from Control) [2]
COc1ccc(C(=O)Nc2ccccc2)cc1NC(=S)Nc1cccc([N+](=O)[O-])c1 [Example 66, 3-[3-(3-Nitrophenyl)-thioureido]-4-methoxy-N-phenyl-benzamide]	38	188 to 189	7				
O=C(Nc1ccccc1)c1ccc(O)c(Nc2cc(Cl)cc(Cl)c2)c1 [Example 56, 4-Hydroxy-3-(3,5-dichloro-phenylamino)-N-phenyl-benzamide]		160 to 162	18	2600			
COc1ccc(C(=O)Nc2ccccc2)cc1NC(=S)Nc1c(F)c(F)cc(F)c1F [Example 68, 4-Methoxy-N-phenyl-3-[3-(2,3,5,6-tetrafluoro-phenyl)-thioureido]-benzamide]		170 to 174	42	2300			
COc1ccc(C(=O)Nc2ccccc2)cc1NC(=S)Nc1cc(Cl)cc(Cl)c1 [Example 60, 3-[3-(3,5-Dichlorophenyl)-thioureido]-4-methoxy-N-phenyl-benzamide]		195 to 197	8.6	17600	+84 % Δ from Control	+40 % Δ from Control	+59 % Δ from Control
COc1ccc(C(=O)Nc2ccccc2)cc1Nc1ccccc1 [Example 28, 4-Methoxy-3-phenylainino-N-phenyl-benzamide]	25	194 to 195	39				

Reference: US6528528B2 (Warner-Lambert Company, priority 1997, dated 2003)
